The values below come from EP2408450B1, “ALPHA-(N-SULFONAMIDO)ACETAMIDE COMPOUND AS AN INHIBITOR OF BETA AMYLOID PEPTIDE PRODUCTION” (Bristol-Myers Squibb Company, priority 2009, dated 2010).

A short description of data set [1]: Metabolic stability in liver microsomes (rat). It counts as in vitro ADME. As for the experimental part:
Mouse, rat, dog, human, and cynomolgus monkey liver microsomes were obtained from BD Gentest (Woburn, MA). The lot numbers were 13 (mouse), 8 (rat), 8 (dog), 19 and 26 (human), and 3 (cynomolgus monkey). […] The reaction, conducted in triplicate, was initiated by the addition of NADPH followed by incubation at 37°C for 50 minutes. Aliquots of samples (0.25 mL) were taken at 0, 5, 10, 20, 30, 40 and 50 minutes and the reaction was quenched by the addition of 3 volumes of acetonitrile. […] The reaction, conducted in triplicate, was initiated by the addition of NADPH followed by incubation at 37 °C for 50 minutes. Aliquots of samples (0.25 mL) were taken at 0, 5, 10, 20, 30, 40 and 50 minutes and the reaction was quenched by the addition of 3 volumes of acetonitrile. […] The reaction, conducted in duplicate, was initiated by the addition of NADPH followed by incubation at 37°C for 40 minutes. Aliquots of samples (0.25 mL) were taken at 0, 5, 10, 15, 20, 30 and 40 minutes and the reaction was quenched by the addition of 3 volumes of acetonitrile. For all studies, samples were analyzed immediately by an LC/MS method.

In data set [2] the target is presenilin target site of the γ-secretase complex. The data set can be described thus: Presenilin binding assay (radioligand displacement, THP-1 membranes). The following applies: mean ± SD, n = 8. On the procedure: Radioligand displacement assays with [^3H] (R)-4-((N-(1-amino-4-methyl-1-oxopentan-2-yl)-4-chlorophenylsulfonamido)methyl)-N-(2-methoxyethyl)benzamide were carried out using a method previously described for [^3H] (2R,3S)-2-isobutyl-N1-((S)-2-oxo-1-(3-phenoxybenzyl)azepan-3-yl)-3-propylsuccinamide (RE987, compound A [Seiffert, D. et al., "Presenilin-1 and -2 are molecular targets for γ-secretase inhibitors", J. Biol. Chem., 275(44):34086-34091 (2000)]). Several experiments were performed to confirm that [^3H] (R)-4-((N-(1-amino-4-methyl-1-oxopentan-2-yl)-4-chlorophenylsulfonamido)methyl)-N-(2-methoxyethyl)benzamide bound to γ-secretase. First, the specific binding of [^3H] […] (R)-4-((N-(1-amino-4-methyl-1-oxopentan-2-yl)-4-chlorophenylsulfonamido)methyl)-N-(2-methoxyethyl)benzamide binding to THP-1 membranes correlated well with γ-secretase potency both as measured using previous radioligand binding assays and inhibition of Aβ formation in cultured cells.
THP-1 cells were grown in Spinner cultures in RPMI 1640 containing L-glutamine (Life Technologies Inc.) and 10 µM β-mercaptoethanol to a cell density of 5 x 10^5/mL. […] Filters were washed three times with 0.3 mL per well of phosphate buffered saline pH 7.0 at 4°C and radioactivity was measured using a Wallac 1450 Microbeta liquid scintillation counter (PerkinElmer, Boston, MA). […]
On the technique in general: Displacement assays read how much labelled ligand stays bound in the presence of the test substance.

Data set [3] is described as follows: Compound plasma levels / AUC in rat studies. It counts as in vivo. The conditions noted are these: for concentration at 5 h: female, Sprague-Dawley, rat, plasma, oral. On the procedure: All procedures were done in concordance with ACUC guidelines. […] Plasma was obtained after centrifugation. […] CSF samples were centrifuged to remove cells or debris prior to dilution at 1:2 in 4% BSA and frozen for subsequent analysis.
Animals were euthanized 12 or 24 hours after the third dose or 5 hours after the fourth dose. […] Table 2: Summary of Results from 4-day Rat Studies

The test system of another data set is plasma Aβ40. Put plainly: Rat plasma Aβ40 assay (4G8-TSD ELISA). The conditions noted are these: for plasma Aβ40, % of baseline Aβ40 values: 2 to 24 hours post dosing.

The structures appear in SMILES notation. pKi: −log10 of the molar value. Read-outs that look alike come from different tables or passages of the source.

The pKi is the negative decadic logarithm of the Ki, by convention in mol/L. Low readings indicate a high Ki, high ones a low Ki. The ED50 is the midpoint of the dose-response relation. With `NC(=O)[C@@H](CCC(F)(F)F)N(Cc1ccc(-c2ncon2)cc1F)S(=O)(=O)c1ccc(Cl)cc1` [(2R)-2-[[(4-chlorophenyl)sulfonyl][[2-fluoro-4-(1,2,4-oxadiazol-3-yl)phenyl]methyl]amino]-5,5,5-trifluoropentanamide], the “rate of in vitro metabolism” value in data set [1] (rat microsomes, NADPH-fortified, 1 µM) is recorded as 630 pmol/min/mg protein. The “predicted in vivo (serum) clearance” value in data set [1] (rat, scaled from liver microsome rate) is recorded as about 52 mL/min/kg. In data set [2], this compound had a pKi of 9.32. In addition, the concentration at 5 h in data set [3] (30 mg/kg/day, Rat Study No. 3, 30 mg/kg/day, group terminated Day 4, read-out: Plasma Conc. 5hr post dose Day 1) turned out to be 5.9 µM; in data set [3] (30 mg/kg/day, Rat Study No. 3, 30 mg/kg/day, group terminated Day 4, read-out: Plasma Conc. 5hr post dose Day 4) it was 5.6 µM; in data set [3] (30 mg/kg/day, Rat Study No. 3, 30 mg/kg/day, group terminated Day 7, read-out: Plasma Conc. 5hr post dose Day 1) it was 7.2 µM; in data set [3] (30 mg/kg/day, Rat Study No. 3, 30 mg/kg/day, group terminated Day 7, read-out: Plasma Conc. 5hr post dose Day 7) it was 6.2 µM; in data set [3] (300 mg/kg/day, Rat Study No. 3, 300 mg/kg/day, group terminated Day 4, read-out: Plasma Conc. 5hr post dose Day 1), 12 µM; in data set [3] (300 mg/kg/day, Rat Study No. 3, 300 mg/kg/day, group terminated Day 4, read-out: Plasma Conc. 5hr post dose Day 4), 10 µM. Moreover, the concentration at 5 h in data set [3] (300 mg/kg/day, Rat Study No. 3, 300 mg/kg/day, group terminated Day 7, read-out: Plasma Conc. 5hr post dose Day 1) is 14 µM; in data set [3] (300 mg/kg/day, Rat Study No. 3, 300 mg/kg/day, group terminated Day 7, read-out: Plasma Conc. 5hr post dose Day 7), 11 µM. Further, in data set [3] (rats, 30 or 300 mg/kg/day), the “compound plasma levels 5 hours after the first and fourth dose” value was “similar”. For the same compound, in the data set on plasma Aβ40 (Rattus norvegicus, read-out: ED50 for reduction of plasma Aβ40), the median effective dose (ED50) lay in the range of 1 to 10 mg/kg. Moreover, in the data set with plasma Aβ40 (rat, single dose 1 mg/kg, by 8 hours), the “plasma Aβ40, % of starting values” was 250%. The “plasma Aβ40” value in the data set on plasma Aβ40 (rat, single dose 1 mg/kg, by 24 hours) is “returning to baseline values”. In addition, the “plasma Aβ40, % of baseline Aβ40 values” with plasma Aβ40 (rat, single dose 10 mg/kg) was “less than 25%”; in the data set on plasma Aβ40 (rat, single dose 100 mg/kg) it was “less than 25%”. The “plasma Aβ40, % of vehicle control” value in the data set on plasma Aβ40 (rat, single dose 30 mg/kg) stood at 2%.
